The text below walks through data of patent publication US12024531B2, “Immunoproteasome inhibitors” (Principia Biopharma Inc., priority 2017, dated 2024).

Holding throughout (format): biochemical
The target of assay [1] is immunoproteasome LMP7/B5i subunit (Homo sapiens, UniProt P28062). The assay can be described thus: Caliper-based proteasome enzymatic activity assay, LMP7. As to conditions: human recombinant immunoproteasome 0.3 nM, FAM peptide substrate 1 μM, rt 3 h.
Assay [2] deals with constitutive proteasome β5c subunit (Homo sapiens, UniProt P28074). The assay can be described thus: Caliper-based proteasome enzymatic activity assay, β5c. As to conditions: human recombinant constitutive proteasome 0.3 nM, FAM peptide substrate 1 μM, rt 3 h.
Assay [3] concerns the target immunoproteasome LMP2 subunit (Homo sapiens, UniProt P28065). The assay can be described thus: Caliper-based proteasome enzymatic activity assay, LMP2. As to conditions: human recombinant immunoproteasome 0.3 nM, FAM peptide substrate 1 μM, rt 2 h.

A value given as a limit tells only on which side of the number the result lay.

The IC50 is the point on the concentration scale where inhibition reaches its midpoint. For `N#CC(=Cc1ccc(Cl)c(OCCC(=O)N[C@@H](Cc2ccccc2)B(O)O)c1Cl)c1ccccn1` [Example 39, (R)-(1-(3-(2,6-dichloro-3-(2-cyano-2-(pyridin-2-yl)vinyl)phenoxy)propanamido)-2-phenylethyl)boronic Acid], the IC50 turned out to be 0.014 µM in assay [1], 0.136 µM in assay [2] and 0.325 µM in assay [3].
As for `N#CC(=Cc1cccc(OCCC(=O)N[C@@H](Cc2ccccc2)B(O)O)c1F)c1ccccn1` [Example 40, (R)-(1-(3-(3-(2-cyano-2-(pyridin-2-yl)vinyl)-2-fluorophenoxy)propanamido)-2-phenylethyl)boronic Acid], the results for the IC50 in assay [1], in assay [2] and in assay [3] were 0.0085 µM, 0.07 µM and 0.0739 µM, respectively.
Turning to `CN(C)C(=O)C(C#N)=Cc1cc(F)cc(OCCC(=O)N[C@@H](Cc2ccccc2)B(O)O)c1` [Example 41, (R)-(1-(3-(3-(2-cyano-3-(dimethylamino)-3-oxoprop-1-en-1-yl)-5-fluorophenoxy)propanamido)-2-phenylethyl)boronic Acid], the IC50 in assay [1] came out at 0.0041 µM; in assay [2], 0.176 µM; in assay [3] it was 0.32 µM.
Take `CN(C)C(=O)C(C#N)=Cc1cc(OCCC(=O)N[C@@H](Cc2ccccc2)B(O)O)ccc1F` [Example 42, (R)-(1-(3-(3-(2-cyano-3-(dimethylamino)-3-oxoprop-1-en-1-yl)-4-fluorophenoxy)propanamido)-2-phenylethyl)boronic Acid]: the IC50 came to 0.006 µM in assay [1], 0.192 µM in assay [2] and 0.393 µM in assay [3].
For the compound `N#CC(=Cc1cc(OCCC(=O)N[C@@H](Cc2ccccc2)B(O)O)ccc1F)c1ccccn1` [Example 43, (R)-(1-(3-(3-(2-cyano-2-(pyridin-2-yl)vinyl)-4-fluorophenoxy)propanamido)-2-phenylethyl)boronic Acid], the IC50 in assay [1] turned out to be 0.0029 µM; in assay [2] it was 0.0394 µM; in assay [3] it was 0.122 µM.
For the compound `Cc1ccc(C[C@H](NC(=O)CCOc2cccc(C=C(C#N)C(=O)N(C)C)c2)B(O)O)c(C)c1` [Example 44, (R)-(1-(3-(3-(2-cyano-3-(dimethylamino)-3-oxoprop-1-en-1-yl)phenoxy)propanamido)-2-(2,4-dimethylphenyl)ethyl)boronic Acid], the IC50 in assay [1] worked out at 0.0021 µM; in assay [2], 0.388 µM; in assay [3], 3.13 µM.
Turning to `Cc1ccc(C[C@H](NC(=O)CCOc2cccc(C=C(C#N)c3ccccn3)c2)B(O)O)c(C)c1` [Example 45, (R)-1-(3-(3-(2-cyano-2-(pyridin-2-yl)vinyl)phenoxy)propanamido)-2-(2,4-dimethylphenyl)ethylboronic Acid], the results for the IC50 in assay [1], in assay [2] and in assay [3] were 0.0043 µM, 0.0927 µM and 1.25 µM, respectively.
In the case of `COCCNC(=O)C(C#N)=Cc1cccc(OCCC(=O)N[C@@H](Cc2ccccc2)B(O)O)c1` [Example 46, (R)-(1-(3-(3-(2-cyano-3-((2-methoxyethyl)amino)-3-oxoprop-1-en-1-yl)phenoxy)propanamido)-2-phenylethyl)boronic Acid], the IC50 in assay [1] was found to be 0.0046 µM; in assay [2], 0.141 µM; in assay [3] it was 0.37 µM.
The corresponding values for `COCC(C)(C)NC(=O)C(C#N)=Cc1cccc(OCCC(=O)N[C@@H](Cc2ccccc2)B(O)O)c1` [Example 47, (R)-(1-(3-(3-(2-cyano-3-((1-methoxy-2-methylpropan-2-yl)amino)-3-oxoprop-1-en-1-yl)phenoxy)propanamido)-2-phenylethyl)boronic Acid] are 0.0053 µM, 0.0722 µM and 0.438 µM.
With `COC(C)(C)CNC(=O)C(C#N)=Cc1cccc(OCCC(=O)N[C@@H](Cc2ccccc2)B(O)O)c1` [Example 48, (R)-(1-(3-(3-(2-cyano-3-((2-methoxy-2-methylpropyl)amino)-3-oxoprop-1-en-1-yl)phenoxy)propanamido)-2-phenylethyl)boronic Acid], the IC50 in assay [1] worked out at 0.0051 µM; in assay [2], 0.0904 µM; in assay [3], 0.415 µM.
Regarding `CN(C)C(=O)C(C#N)=Cc1cccc(COCC(=O)N[C@@H](Cc2ccccc2)B(O)O)c1` [Example 49, (R)-(1-(2-((3-(2-cyano-3-(dimethylamino)-3-oxoprop-1-en-1-yl)benzyl)oxy)acetamido)-2-phenylethyl)boronic Acid], the IC50 in assay [1] came to 0.0049 µM; in assay [2], 1.13 µM; in assay [3] it was 2.9 µM.
Regarding `COc1cccnc1C(C#N)=Cc1cccc(OCCC(=O)N[C@@H](Cc2ccccc2)B(O)O)c1` [Example 51, (R)-(1-(3-(3-(2-cyano-2-(3-methoxypyridin-2-yl)vinyl)phenoxy)propanamido)-2-phenylethyl)boronic Acid], the IC50 in assay [1] turned out to be 0.0202 µM; in assay [2], 0.122 µM; in assay [3] it was 0.306 µM.
The corresponding values for `CN(C)C(=O)C(C#N)=Cc1cccc(CCOC(=O)N[C@@H](Cc2coc3ccccc23)B(O)O)c1` [Example 53, (R)-(2-(benzofuran-3-yl)-1-(((3-(2-cyano-3-(dimethylamino)-3-oxoprop-1-en-1-yl)phenethoxy)carbonyl)amino)ethyl)boronic Acid] are 0.001 µM, 0.212 µM and above 5 µM.
`N#CC(=Cc1cccc(CCOC(=O)N[C@@H](Cc2ccccc2)B(O)O)c1)c1ccc(C(F)(F)F)cn1` [Example 56, (R)-(1-(((3-(2-cyano-2-(5-(trifluoromethyl)pyridin-2-yl)vinyl)phenethoxy)carbonyl)amino)-2-phenylethyl)boronic Acid]: the IC50 in assay [1] was 0.0038 µM; in assay [2] it was 0.439 µM; in assay [3] it was 1.77 µM.
On to `Cc1ccc(C[C@H](NC(=O)OCCc2cccc(C=C(C#N)c3ccccn3)c2)B(O)O)cc1` [Example 57, (R)-(1-(((3-(2-cyano-2-(pyridin-2-yl)vinyl)phenethoxy)carbonyl)amino)-2-(p-tolyl)ethyl)boronic Acid], for which the IC50 was 0.0018 µM in assay [1], 0.188 µM in assay [2] and above 5 µM in assay [3].
Turning to `N#CC(=Cc1cccc(CCOC(=O)N[C@@H](Cc2ccccc2)B(O)O)c1)c1ccncn1` [Example 59, (R)-(1-(((3-(2-cyano-2-(pyrimidin-4-yl)vinyl)phenethoxy)carbonyl)amino)-2-phenylethyl)boronic Acid], the results for the IC50 in assay [1], in assay [2] and in assay [3] were 0.0009 µM, 0.354 µM and 0.544 µM, respectively.
Regarding `CCN(CC)C(=O)C(C#N)=Cc1cccc(CCNC(=O)N[C@@H](Cc2ccccc2)B(O)O)c1` [Example 61, (R)-(1-(3-(3-(2-cyano-3-(diethylamino)-3-oxoprop-1-en-1-yl)phenethyl)ureido)-2-phenylethyl)boronic Acid], the IC50 was 0.0432 µM in assay [1], above 5 µM in assay [2] and above 5 µM in assay [3].
Consider `N#CC(=Cc1cccc(CCNC(=O)N[C@@H](Cc2ccccc2)B(O)O)c1)c1ccccn1` [Example 62, (R)-(1-(3-(3-(2-cyano-2-(pyridin-2-yl)vinyl)phenethyl)ureido)-2-phenylethyl)boronic Acid], for which the IC50 in assay [1] was 0.186 µM; in assay [2] it was above 5 µM; in assay [3], above 5 µM.
In the case of `N#CC(=Cc1cccc(CCOC(=O)N[C@@H](Cc2ccccc2)B(O)O)c1)c1cnccn1` [Example 63, (R)-(1-(((3-(2-cyano-2-(pyrazin-2-yl)vinyl)phenethoxy)carbonyl)amino)-2-phenylethyl)boronic Acid], the IC50 in assay [1] was 0.0014 µM; in assay [2], 0.556 µM; in assay [3], 1.51 µM.
In the case of `CCN(C(=O)C(C#N)=Cc1cccc(CCOC(=O)N[C@@H](Cc2ccccc2)B(O)O)c1)C(C)C` [Example 64, (R)-(1-(((3-(2-cyano-3-(ethyl(isopropyl)amino)-3-oxoprop-1-en-1-yl)phenethoxy)carbonyl)amino)-2-phenylethyl)boronic Acid], the IC50 in assay [1] was 0.0025 µM; in assay [2] it was 1.92 µM; in assay [3] it was 4.54 µM.
Taken in the same sequence, the figures for `C[C@@H]1COC[C@@H](C)N1C(=O)C(C#N)=Cc1cccc(CCOC(=O)N[C@@H](Cc2ccccc2)B(O)O)c1` [Example 65, ((R)-1-(((3-(2-cyano-3-((3R,5R)-3,5-dimethylmorpholino)-3-oxoprop-1-en-1-yl)phenethoxy)carbonyl)amino)-2-phenylethyl)boronic Acid] were 0.0006 µM, 1.19 µM and 3.56 µM.
In the case of `N#CC(=Cc1ccc2c(c1)CN(CC(=O)N[C@@H](Cc1ccccc1)B(O)O)CC2)c1ccccn1` [Example 66, (R)-(1-(2-(7-(2-cyano-2-(pyridin-2-yl)vinyl)-3,4-dihydroisoquinolin-2(1H)-yl)acetamido)-2-phenylethyl)boronic Acid], the IC50 amounted to 0.0046 µM in assay [1], 0.0333 µM in assay [2] and 0.0744 µM in assay [3].
Taken in the same sequence, the figures for `C[C@H]1COC[C@H](C)N1C(=O)C(C#N)=Cc1cccc(CCOC(=O)N[C@@H](Cc2ccccc2)B(O)O)c1` [Example 68, ((R)-1-(((3-(2-cyano-3-((3S,5S)-3,5-dimethylmorpholino)-3-oxoprop-1-en-1-yl)phenethoxy)carbonyl)amino)-2-phenylethyl)boronic Acid] were 0.0007 µM, above 5 µM and above 5 µM.
Consider `CCN(C(=O)C(C#N)=Cc1cccc(CCOC(=O)N[C@@H](Cc2ccccc2)B(O)O)c1)C(C)(C)C` [Example 69, (R)-(1-(((3-(3-(tert-butyl(ethyl)amino)-2-cyano-3-oxoprop-1-en-1-yl)phenethoxy)carbonyl)amino)-2-phenylethyl)boronic Acid], for which the values for the IC50 in assay [1], in assay [2] and in assay [3] were 0.0022 µM, 3.02 µM and 3.19 µM, respectively.
